Where “and” joins values, the source holds several entries; their conditions need not be identical. Identical values can stand only once. Toxic doses and inconclusive results are not listed.
System: B6C3F1 mice, B16 melanoma ip, median survival T/C
Test: NCI In Vivo Anticancer Drug Screen. Data for tumor model B16 Melanoma (intraperitoneal) in B6C3F1 mice
Settings: endpoint: median survival time, higher = longer survival
Summary of the method: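 Mice bearing transplanted tumor were dosed with compound or vehicle, and survival was recorded. Activity is expressed as the treated-group measurement (T) divided by the vehicle control measurement (C).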

[1] = dose: 12.5 mg/kg/injection, schedule: Q01DX009 (ip), vehicle: saline with Tween-80
[2] = dose: 25.0 mg/kg/injection, schedule: Q01DX009 (ip), vehicle: saline with Tween-80
[3] = dose: 25.0 mg/kg/injection, schedule: Q01DX009 (ip), vehicle: Klucel (hydroxypropylcellulose) (HPC)
[4] = dose: 50.0 mg/kg/injection, schedule: Q01DX009 (ip), vehicle: Klucel (hydroxypropylcellulose) (HPC)
[5] = dose: 100.0 mg/kg/injection, schedule: Q01DX009 (ip), vehicle: Klucel (hydroxypropylcellulose) (HPC)

Question: With `C[C@@]1(CO)[C@H](O)CC[C@@]2(C)[C@H]1CC[C@H]1C[C@@H]3C[C@@]12CC[C@@]3(O)COC(=O)CN` as the compound, how does the T/C (dose: 0.02 mg/kg/injection, schedule: Q01DX009 (ip), vehicle: saline + alcohol) read?
Answer: 98 % of control

Question: What about the T/C (dose: 0.37 mg/kg/injection, schedule: Q01DX009 (ip), vehicle: saline + alcohol) of the same compound?
Answer: 94 % of control

Question: And the T/C (dose: 0.4 mg/kg/injection, schedule: Q01DX009 (ip), vehicle: saline + alcohol)?
Answer: 102 % of control

Question: What about the T/C (dose: 0.75 mg/kg/injection, schedule: Q01DX009 (ip), vehicle: saline + alcohol) of the same compound?
Answer: 98 % of control

Question: And the T/C (dose: 0.8 mg/kg/injection, schedule: Q01DX009 (ip), vehicle: saline + alcohol)?
Answer: 124 % of control

Question: What about the T/C (dose: 1.5 mg/kg/injection, schedule: Q01DX009 (ip), vehicle: saline + alcohol) of the same compound?
Answer: 101 % of control

Question: And the T/C (dose: 1.6 mg/kg/injection, schedule: Q01DX009 (ip), vehicle: saline + alcohol)?
Answer: 101 % of control

Question: And the T/C (dose: 1.7 mg/kg/injection, schedule: Q01DX005 (iv), vehicle: saline + alcohol)?
Answer: 108 % of control

Question: And the T/C (dose: 2.1 mg/kg/injection, schedule: Q01DX001 (iv), vehicle: saline + alcohol)?
Answer: 111 % of control

Question: What about the T/C (dose: 2.1 mg/kg/injection, schedule: Q03HX008 (ip), vehicle: saline + alcohol) of the same compound?
Answer: 120 % of control

Question: And the T/C (dose: 2.8 mg/kg/injection, schedule: Q03HX024 (ip), vehicle: saline + alcohol)?
Answer: 97 % of control

Question: And the T/C (dose: 3.0 mg/kg/injection, schedule: Q01DX009 (ip), vehicle: saline + alcohol)?
Answer: 102 % of control

Question: And the T/C (dose: 3.4 mg/kg/injection, schedule: Q01DX005 (iv), vehicle: saline + alcohol)?
Answer: 99 % of control

Question: What about the T/C (dose: 4.2 mg/kg/injection, schedule: Q01DX001 (iv), vehicle: saline + alcohol) of the same compound?
Answer: 103 % of control

Question: And the T/C (dose: 4.2 mg/kg/injection, schedule: Q03HX008 (ip), vehicle: saline + alcohol)?
Answer: 119 % of control

Question: And the T/C (dose: 5.0 mg/kg/injection, schedule: Q03HX027 (ip), vehicle: saline + alcohol)?
Answer: 113 % of control and 105 % of control and 107 % of control

Question: What about the T/C (dose: 5.0 mg/kg/injection, schedule: Q03HX027 (sc), vehicle: saline + alcohol) of the same compound?
Answer: 109 % of control

Question: What about the T/C (dose: 5.6 mg/kg/injection, schedule: Q03HX024 (ip), vehicle: saline + alcohol) of the same compound?
Answer: 116 % of control

Question: What about the T/C (dose: 6.0 mg/kg/injection, schedule: Q01DX009 (ip), vehicle: saline + alcohol) of the same compound?
Answer: 93 % of control

Question: And the T/C (dose: 6.75 mg/kg/injection, schedule: Q01DX005 (ip), vehicle: saline + alcohol)?
Answer: 95 % of control

Question: What about the T/C (dose: 6.8 mg/kg/injection, schedule: Q01DX005 (iv), vehicle: saline + alcohol) of the same compound?
Answer: 96 % of control

Question: What about the T/C (dose: 8.4 mg/kg/injection, schedule: Q03HX008 (ip), vehicle: saline + alcohol) of the same compound?
Answer: 114 % of control

Question: What about the T/C (dose: 8.5 mg/kg/injection, schedule: Q01DX001 (iv), vehicle: saline + alcohol) of the same compound?
Answer: 109 % of control

Question: What about the T/C (dose: 10.0 mg/kg/injection, schedule: Q03HX027 (ip), vehicle: saline + alcohol) of the same compound?
Answer: 117 % of control and 123 % of control

Question: And the T/C (dose: 10.0 mg/kg/injection, schedule: Q03HX027 (sc), vehicle: saline)?
Answer: 102 % of control

Question: What about the T/C (dose: 12.5 mg/kg/injection, schedule: Q01DX009 (ip), vehicle: saline + alcohol) of the same compound?
Answer: 111 % of control and 120 % of control

Question: What about the T/C (dose: 13.5 mg/kg/injection, schedule: Q01DX005 (ip), vehicle: saline + alcohol) of the same compound?
Answer: 104 % of control

Question: What about the T/C (dose: 15.0 mg/kg/injection, schedule: Q01DX009 (ip), vehicle: saline + alcohol) of the same compound?
Answer: 116 % of control

Question: What about the T/C (dose: 16.8 mg/kg/injection, schedule: Q03HX008 (ip), vehicle: saline + alcohol) of the same compound?
Answer: 114 % of control

Question: And the T/C (dose: 16.9 mg/kg/injection, schedule: Q01DX001 (ip), vehicle: saline + alcohol)?
Answer: 103 % of control

Question: And the T/C (dose: 16.9 mg/kg/injection, schedule: Q01DX001 (iv), vehicle: saline + alcohol)?
Answer: 103 % of control

Question: And the T/C (dose: 20.0 mg/kg/injection, schedule: Q03HX027 (ip), vehicle: saline + alcohol)?
Answer: 162 % of control

Question: What about the T/C (dose: 20.0 mg/kg/injection, schedule: Q03HX027 (sc), vehicle: saline + alcohol) of the same compound?
Answer: 108 % of control

Question: And the T/C (dose: 20.0 mg/kg/injection, schedule: Q03HX027 (sc), vehicle: saline)?
Answer: 100 % of control

Question: And the T/C (dose: 22.5 mg/kg/injection, schedule: Q04DX003 (ip), vehicle: saline + alcohol)?
Answer: 98 % of control

Question: What about the T/C (dose: 25.0 mg/kg/injection, schedule: Q01DX009 (ip), vehicle: saline + alcohol) of the same compound?
Answer: 121 % of control and 122 % of control

Question: What about the T/C (dose: 27.0 mg/kg/injection, schedule: Q01DX005 (ip), vehicle: saline + alcohol) of the same compound?
Answer: 124 % of control

Question: And the T/C (dose: 27.0 mg/kg/injection, schedule: Q01DX005 (iv), vehicle: saline + alcohol)?
Answer: 105 % of control

Question: What about the T/C (dose: 30.0 mg/kg/injection, schedule: Q01DX009 (ip), vehicle: saline + alcohol) of the same compound?
Answer: 124 % of control

Question: What about the T/C (dose: 30.0 mg/kg/injection, schedule: Q01DX009 (oral), vehicle: saline + alcohol) of the same compound?
Answer: 115 % of control

Question: And the T/C (dose: 33.7 mg/kg/injection, schedule: Q03HX008 (ip), vehicle: saline + alcohol)?
Answer: 115 % of control

Question: And the T/C (dose: 33.8 mg/kg/injection, schedule: Q01DX001 (ip), vehicle: saline + alcohol)?
Answer: 110 % of control

Question: And the T/C (dose: 33.8 mg/kg/injection, schedule: Q01DX001 (iv), vehicle: saline + alcohol)?
Answer: 115 % of control

Question: And the T/C (dose: 40.0 mg/kg/injection, schedule: Q03HX027 (ip), vehicle: saline + alcohol)?
Answer: 175 % of control and 176 % of control

Question: And the T/C (dose: 40.0 mg/kg/injection, schedule: Q03HX027 (sc), vehicle: saline + alcohol)?
Answer: 98 % of control

Question: What about the T/C (dose: 40.0 mg/kg/injection, schedule: Q03HX027 (sc), vehicle: saline) of the same compound?
Answer: 102 % of control

Question: And the T/C (dose: 45.0 mg/kg/injection, schedule: Q04DX003 (ip), vehicle: saline + alcohol)?
Answer: 92 % of control

Question: And the T/C (dose: 50.0 mg/kg/injection, schedule: Q01DX009 (ip), vehicle: saline + alcohol)?
Answer: 151 % of control

Question: And the T/C (dose: 54.0 mg/kg/injection, schedule: Q01DX005 (ip), vehicle: saline + alcohol)?
Answer: 113 % of control

Question: And the T/C (dose: 54.0 mg/kg/injection, schedule: Q01DX005 (iv), vehicle: saline + alcohol)?
Answer: 115 % of control

Question: What about the T/C (dose: 60.0 mg/kg/injection, schedule: Q01DX009 (oral), vehicle: saline + alcohol) of the same compound?
Answer: 117 % of control

Question: What about the T/C (dose: 67.5 mg/kg/injection, schedule: Q01DX001 (ip), vehicle: saline + alcohol) of the same compound?
Answer: 104 % of control

Question: What about the T/C (dose: 67.5 mg/kg/injection, schedule: Q01DX001 (iv), vehicle: saline + alcohol) of the same compound?
Answer: 105 % of control

Question: What about the T/C (dose: 80.0 mg/kg/injection, schedule: Q03HX027 (sc), vehicle: saline + alcohol) of the same compound?
Answer: 121 % of control

Question: What about the T/C (dose: 80.0 mg/kg/injection, schedule: Q03HX027 (sc), vehicle: saline) of the same compound?
Answer: 102 % of control

Question: What about the T/C (dose: 90.0 mg/kg/injection, schedule: Q04DX003 (ip), vehicle: saline + alcohol) of the same compound?
Answer: 91 % of control

Question: And the T/C (dose: 240.0 mg/kg/injection, schedule: Q01DX009 (oral), vehicle: saline + alcohol)?
Answer: 114 % of control

Question: What about the T/C (dose: 36.0 micrograms per hour, schedule: Q#X X216 (sc), vehicle: saline) of the same compound?
Answer: 100 % of control

Question: What about the T/C (dose: 72.0 micrograms per hour, schedule: Q#X X216 (sc), vehicle: saline) of the same compound?
Answer: 102 % of control

Question: What about the T/C (dose: 144.0 micrograms per hour, schedule: Q#X X216 (sc), vehicle: saline) of the same compound?
Answer: 118 % of control

Question: Which results are given for `CC1(C)OC1CS(=O)c1ccccc1` (stereo not drawn)?
Answer: T/C [1]: 96 % of control; T/C (dose: 12.5 mg/kg/injection, schedule: Q01DX009 (ip), vehicle: saline): 93 % of control; T/C [2]: 99 % of control; T/C (dose: 25.0 mg/kg/injection, schedule: Q01DX009 (ip), vehicle: saline): 98 % of control; T/C (dose: 50.0 mg/kg/injection, schedule: Q01DX009 (ip), vehicle: saline with Tween-80): 102 % of control; T/C (dose: 50.0 mg/kg/injection, schedule: Q01DX009 (ip), vehicle: saline): 96 % of control; T/C (dose: 100.0 mg/kg/injection, schedule: Q01DX009 (ip), vehicle: saline with Tween-80): 95 % of control; T/C (dose: 100.0 mg/kg/injection, schedule: Q01DX009 (ip), vehicle: saline): 98 % of control; T/C (dose: 200.0 mg/kg/injection, schedule: Q01DX009 (ip), vehicle: saline with Tween-80): 90 % of control; T/C (dose: 200.0 mg/kg/injection, schedule: Q01DX009 (ip), vehicle: saline): 98 % of control; T/C (dose: 400.0 mg/kg/injection, schedule: Q01DX009 (ip), vehicle: saline with Tween-80): 89 % of control; T/C (dose: 400.0 mg/kg/injection, schedule: Q01DX009 (ip), vehicle: saline): 93 % of control

Question: With `C=Cc1cc(OC)c2c(c1)c(=O)oc1c2cc(OC)c2c(O)ccc(C3OC(C(C)O)C(O)C3O)c21` (stereo not drawn) as the compound, how does the T/C [3] read?
Answer: 165 % of control

Question: What does the source list for `Cc1cc(C)c(-c2cc(O)c(C)cc2O)c(C)c1`?
Answer: T/C (dose: 12.5 mg/kg/injection, schedule: Q01DX009 (ip), vehicle: Klucel (hydroxypropylcellulose) (HPC)): 99 % of control; T/C [3]: 101 % of control; T/C [4]: 103 % of control; T/C [5]: 99 % of control; T/C (dose: 200.0 mg/kg/injection, schedule: Q01DX009 (ip), vehicle: Klucel (hydroxypropylcellulose) (HPC)): 100 % of control

Question: What does the source list for `CN(C)c1ccc2c(Nc3ccc(NS(C)(=O)=O)cc3)c3ccc(N(C)C)cc3nc2c1`?
Answer: T/C [3]: 94 % of control; T/C [4]: 115 % of control and 92 % of control; T/C [5]: 90 % of control and 104 % of control

Question: With `CC(=O)Nc1ccc(/C=N/Nc2ccc([N+](=O)[O-])cn2)cc1` as the compound, how does the T/C [1] read?
Answer: 89 % of control

Question: What about the T/C [2] of the same compound?
Answer: 89 % of control
